Source: patent US20070149553A1, “Mitotic kinesin inhibitors” (priority 2003, published 2007)

Molecular target: T1, human KSP motor domain (Homo sapiens, UniProt P52732)
T1 construct: were used to amplify the motor domain and the neck linker region; made in house; host or cells: E. coli BL21 (DE3)
T1 sequence (P52732 18-359 limits assumed): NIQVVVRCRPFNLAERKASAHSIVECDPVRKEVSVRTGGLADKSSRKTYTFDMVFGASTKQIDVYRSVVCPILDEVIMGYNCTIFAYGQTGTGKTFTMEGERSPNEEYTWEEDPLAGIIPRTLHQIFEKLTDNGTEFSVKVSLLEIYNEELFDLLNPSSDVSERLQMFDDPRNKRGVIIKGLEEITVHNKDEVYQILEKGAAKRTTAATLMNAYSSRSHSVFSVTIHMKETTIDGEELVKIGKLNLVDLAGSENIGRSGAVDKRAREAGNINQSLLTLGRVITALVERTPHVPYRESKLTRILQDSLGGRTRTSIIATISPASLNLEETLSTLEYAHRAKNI
Assay: Kinesin ATPase In Vitro Assay
Type: biochemical
Details: human poly-histidine tagged KSP motor domain (KSP(367H)), microtubules, 1 mM ATP, 23° C.
Text: I. Kinesin ATPase In Vitro Assay
Cloning and Expression of Human Poly-Histidine Tagged KSP Motor Domain (KSP(367H))
Plasmids for the expression of the human KSP motor domain construct were cloned by PCR using a pBluescript full length human KSP construct (Blangy et al., Cell, vol. 83, pp 1159-1169, 1995) as a template. The N-terminal primer 5′-[…] (SEQ. ID. NO.: 1) and the C-terminal primer 5′-[…] […] (SEQ. ID. NO.: 2) were used to amplify the motor domain and the neck linker region. The PCR products were digested with AseI and XhoI, ligated into the NdeI/XhoI digestion product of pRSETa (Invitrogen) and transformed into E. coli BL21 (DE3).
Cells were grown at 37° C. to an OD600 of 0.5. […]
The kinesin motor domain is incubated with microtubules, 1 mM ATP (1:1 MgCl2: Na-ATP), and compound at 23° C. in buffer containing 80 mM K-HEPES (pH 7.0), 1 mM EGTA, 1 mM DTT, 1 mM MgCl2, and 50 mM KCl. […] Free phosphate from the ATP hydrolysis reaction is measured via a quinaldine red/ammonium molybdate assay by adding 150 μl of quench C buffer containing a 2:1 ratio of quench A:quench B. Quench A contains 0.1 mg/ml quinaldine red and 0.14% polyvinyl alcohol; quench B contains 12.3 mM ammonium molybdate tetrahydrate in 1.15 M sulfuric acid. The reaction is incubated for 10 minutes at 23° C., and the absorbance of the phospho-molybdate complex is measured at 540 nm.

Cc1ccc(-n2c(-c3ccccc3Br)nc3sccc3c2=O)cc1 [1-4, 2-(2-bromophenyl)-3-(4-methylphenyl)thieno[2,3-d]pyrimidin-4(3H)-one]
IC50: ≤ 50 µM
